From PubChem BioAssay AID1626 (SRMLSC, 2009)

System: M. tuberculosis H37Rv growth inhibition
Assay: M. tuberculosis H37Rv growth inhibitors, H37Rv strain (AID 1626)
Conditions: for IC90: measured here: IC90 against H37Rv; for CC50: measured here: Vero cell cytotoxicity

Structure (SMILES)	IC50 [µM]	IC90 [µM]	CC50 [µM]
COc1cccc(Nc2c3c(nc4c(-c5ccccc5)c(C)nn24)CCC3)c1	3.4	5.95	> 40
CSc1nc(N(C)C)c2ccccc2n1	42.9	> 100	
CN(C(=O)c1ccco1)c1nc2c(s1)CCCC2			> 40
O=S(=O)(Nc1ccn(-c2ccccc2)n1)c1ccc(Br)cc1	30.1	> 100	
CCOC(=O)N1CCN(C(=O)CSc2nc(-c3cccc(C)c3)ns2)CC1	0.734	0.828	> 40
O=C(/C=C/c1ccc(Cl)cc1Cl)c1cccnc1	2.97	3.35	30.6
c1ccc(-c2oc3ncnc(NCCCn4ccnc4)c3c2-c2ccccc2)cc1	7.29	16.4	23.6
Nc1cnn(Cc2ccc(F)cc2)c1		> 100	
CCOC(=O)c1ccc2ncc(C(=O)OCC)c(Nc3ccc(N4CCOCC4)cc3)c2c1	10.9	22.7	> 40
O=C(OCC#CCSc1nnc(-c2ccc(Br)cc2)o1)c1cccs1	< 0.195	2.44	
CCCC(=O)OCCNc1cc(SCc2ccco2)c2nonc2c1[N+](=O)[O-]	4.2	9.07	
Cc1cccc(Oc2ccc(N)cc2)c1		> 100	
COc1ccc(NC(=O)c2ccc(COCC(F)(F)C(F)F)cc2)cc1		> 100	
Cc1ccc(C(C(=O)Nc2ccc3c(c2)OCO3)N(C)C(=O)/C=C\c2ccc3c(c2)OCO3)cc1 (centres undefined)	45.5	> 100	
CC1(C)CC(NC(=O)c2sc3cc(Cl)ccc3c2Cl)CC(C)(C)N1		> 100	12.6
COc1ccc(C2CC(=O)N3CN(c4ccc(C)c(Cl)c4)CSC3=C2C#N)cc1OC (centres undefined)		> 100	
CCCCOC(=O)Nc1ccc(C)c(Cl)c1		> 100	
CCOC(=O)CSc1ncnc2c1cnn2-c1ccc(C)cc1C	1.44	2.48	
O=C(CSc1nc(-c2ccccc2Cl)ns1)Nc1ccc2c(c1)OCO2			> 40
CC[C@H]1CC2CN3CCc4c([nH]c5c([C@H]6C[C@H]7[C@H](CC)CN(C)[C@@H](Cc8c6[nH]c6ccccc86)[C@H]7C(=O)OC)c(OC)ccc45)C(C(=O)OC)(C2)C13	5.85	7.6	20.8
Cc1ccc(Nc2nc(CSc3nnc(-c4cccs4)o3)cs2)cc1	6.8	15.9	> 40
O=C(COC(=O)/C=C/c1nc2ccccc2s1)Nc1cccc(Cl)c1Cl		> 100	
Cc1ccc2cc(/C=C/C(=O)c3ccco3)c(Cl)nc2c1	19.3	> 100	> 40
COc1ccc2cc(C(=O)C3CCCN(Cc4cccc(C)n4)C3)ccc2c1 (centres undefined)	7	14.7	> 40

Structure (SMILES)	IC50 [µM]	IC90 [µM]	CC50 [µM]
Cn1c(COc2cccc3ccccc23)nnc1SCC(=O)OC1CCCCC1	2.3	6.77	
Cc1ccc(NC(=O)C2CCCCC2C(=O)O)cc1Cl (centres undefined)		> 100	
COc1ccc2c(c1)CCc1c-2nc2ccccc2c1N1CCOCC1	11.5	18.6	> 40
COC(=O)c1c(NC(=O)c2ccccc2)sc(C(=O)c2ccccc2)c1C	9.53	25.6	25.3
O=C(COC(=O)Cc1ccccc1F)Nc1ccc2c(c1)OCO2		> 100	
CCOc1ccc(NC2C=CS(=O)(=O)C2)cc1 (centres undefined)		> 100	
Cc1nc2ccc(NC(=O)N(C(C)C)C(C)C)cc2s1	20.2	> 100	
Cc1cc(=O)[nH]c(-n2nc(C)cc2C)n1	1.42	2.43	> 40
CCC/C(O)=C1\C(=O)CCCC1=NCCc1c(C)[nH]c2ccc(C)cc12		> 100	
CCOC(=O)C1CCN(c2nc3cc(OC)ccc3cc2C#N)CC1	8.91	14.2	
Nc1[nH]ncc1-c1ccc(Cl)cc1	21.6	> 100	
CCOC(=O)CSc1ncnc2c1cnn2-c1ccc(Cl)cc1	1.03	> 100	
Cc1ccc(C(=O)Nc2nnc(-c3ccncc3)o2)cc1	5.94	6.95	> 40
CCOC(=O)CNc1ccc(C(=O)OCC)cc1[N+](=O)[O-]	3.23	> 100	
Nc1nc2c(s1)COc1ccccc1-2		> 100	
COc1ccc(-c2csc(-c3cccs3)n2)cc1OC	11.3	> 100	
CC(C)OC(=O)c1cc(C(=O)c2cc(Cl)ccc2O)coc1=N	28.2	> 100	
COCc1ccc(O)c2ncccc12	10.9	12	9.76
O=c1oc2ccccc2nc1/C=C(O)/C=C\c1ccccc1	4.33	13.1	
CCC(=O)Nc1ccc(-c2nc3ccccc3c(=O)o2)cc1	18	84	
Cc1ccc(-n2c(C)nc3c(cnn3-c3ccc(C)c(C)c3)c2=O)cc1C			> 40
CCCSc1cc(N2CCN(C)CC2)nc(-c2ccc(OC)cc2)n1	10.9	12.2	> 40
CCOC(=O)c1ccc(N2C(=O)c3n[nH]c(-c4ccco4)c3C2c2ccc([N+](=O)[O-])cc2)cc1 (centres undefined)	9.07	17	28
c1ccc(CN2CCC(N=C3NN=C(c4ccc5c(c4)OCCO5)CS3)CC2)cc1	18.2	21.6	> 40
